For the assay, the target named is human Nav1.8 (Homo sapiens, UniProt Q9Y5Y9). Put plainly: SyncroPatch384PE assay (automated patch clamp). It counts as cell-based. Conditions: human Nav1.8/b3 CHO cells. (In general: The patch-clamp technique gives a direct electrical read-out from membranes.)
Where [1] appears, read: inactivated state block (P2 measurement), read-out: P2 IC50.
The mark [2] stands for this setting: resting state block (P1 measurement), read-out: P1 IC50.

Counter-ions that a name gives are not always drawn. Like-named read-outs stand apart in the source and are kept apart here.

In general, IC50 refers to the concentration at which inhibition is half-maximal.

human Nav1.8, sequence (Q9Y5Y9 whole entry): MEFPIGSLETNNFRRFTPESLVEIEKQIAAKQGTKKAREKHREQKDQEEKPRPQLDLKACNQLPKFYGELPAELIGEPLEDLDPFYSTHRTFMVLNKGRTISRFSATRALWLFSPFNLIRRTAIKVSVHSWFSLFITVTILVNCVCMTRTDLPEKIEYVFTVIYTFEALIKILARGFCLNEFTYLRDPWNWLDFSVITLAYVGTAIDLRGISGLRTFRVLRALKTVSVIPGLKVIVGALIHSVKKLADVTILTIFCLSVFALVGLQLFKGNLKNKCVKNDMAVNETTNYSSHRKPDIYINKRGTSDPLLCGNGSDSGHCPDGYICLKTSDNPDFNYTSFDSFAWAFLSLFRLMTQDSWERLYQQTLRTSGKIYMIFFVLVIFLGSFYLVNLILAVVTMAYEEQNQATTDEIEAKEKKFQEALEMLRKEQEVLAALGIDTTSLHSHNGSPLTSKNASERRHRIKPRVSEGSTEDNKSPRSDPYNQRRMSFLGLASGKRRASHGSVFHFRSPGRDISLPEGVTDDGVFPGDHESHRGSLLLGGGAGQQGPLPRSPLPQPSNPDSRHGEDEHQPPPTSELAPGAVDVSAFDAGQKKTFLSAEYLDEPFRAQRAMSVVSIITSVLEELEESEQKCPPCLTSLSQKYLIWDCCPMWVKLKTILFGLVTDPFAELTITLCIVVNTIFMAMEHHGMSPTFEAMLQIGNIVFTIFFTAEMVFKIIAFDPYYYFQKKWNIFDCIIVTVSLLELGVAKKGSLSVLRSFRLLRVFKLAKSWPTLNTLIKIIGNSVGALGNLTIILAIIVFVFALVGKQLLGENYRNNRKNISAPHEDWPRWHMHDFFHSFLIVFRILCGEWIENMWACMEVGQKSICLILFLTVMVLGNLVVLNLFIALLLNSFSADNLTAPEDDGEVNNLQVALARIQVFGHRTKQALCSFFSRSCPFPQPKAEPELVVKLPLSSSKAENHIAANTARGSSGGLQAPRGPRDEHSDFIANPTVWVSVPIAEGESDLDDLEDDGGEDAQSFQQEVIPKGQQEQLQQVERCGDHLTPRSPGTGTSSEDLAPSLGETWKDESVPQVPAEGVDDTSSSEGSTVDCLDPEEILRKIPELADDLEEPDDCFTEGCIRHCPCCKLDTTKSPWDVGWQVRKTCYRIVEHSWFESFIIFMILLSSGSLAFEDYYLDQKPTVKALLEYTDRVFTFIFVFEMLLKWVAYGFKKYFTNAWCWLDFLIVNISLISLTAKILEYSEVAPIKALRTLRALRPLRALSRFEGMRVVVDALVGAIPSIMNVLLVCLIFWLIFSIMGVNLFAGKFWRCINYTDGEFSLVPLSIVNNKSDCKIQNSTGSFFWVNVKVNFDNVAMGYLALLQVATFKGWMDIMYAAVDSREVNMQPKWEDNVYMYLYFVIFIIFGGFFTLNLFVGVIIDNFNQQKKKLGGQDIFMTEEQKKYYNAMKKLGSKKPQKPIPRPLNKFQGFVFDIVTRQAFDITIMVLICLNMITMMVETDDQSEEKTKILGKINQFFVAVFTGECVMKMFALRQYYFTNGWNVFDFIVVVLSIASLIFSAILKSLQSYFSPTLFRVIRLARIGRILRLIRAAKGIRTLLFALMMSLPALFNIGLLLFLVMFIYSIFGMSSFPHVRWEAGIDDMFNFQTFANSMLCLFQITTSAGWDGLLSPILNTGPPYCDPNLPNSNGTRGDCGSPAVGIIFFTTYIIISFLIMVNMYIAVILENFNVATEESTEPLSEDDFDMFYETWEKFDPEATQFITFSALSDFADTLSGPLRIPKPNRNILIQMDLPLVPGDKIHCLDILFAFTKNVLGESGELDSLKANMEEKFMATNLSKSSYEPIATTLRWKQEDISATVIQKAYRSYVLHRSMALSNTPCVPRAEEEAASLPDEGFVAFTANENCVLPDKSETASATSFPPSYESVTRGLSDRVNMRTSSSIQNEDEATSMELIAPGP

As to `Cc1c(C#N)nnc(N2CCCC(F)(F)CC2)c1C(=O)Nc1cccc([S@](C)(=N)=O)c1` [Example 139, (R)-6-cyano-3-(4,4-difluoroazepan-1-yl)-5-methyl-N-(3-(S-methylsulfonimidoyl)phenyl)pyridazine-4-carboxamide], the IC50 was 100 to 200 nM under setting [1] and above 200 nM under setting [2].

As to `Cc1c(-c2cnn(C)c2)cnc(N2CCCC(F)(F)CC2)c1C(=O)Nc1ccnc([S@](C)(=N)=O)c1` [Example 200, (R)-2-(4,4-difluoroazepan-1-yl)-4-methyl-5-(1-methyl-1H-pyrazol-4-yl)-N-(2-(S-methylsulfonimidoyl)pyridin-4-yl)nicotinamide], the IC50 under setting [1] lay in the range of 100 to 200 nM and the IC50 under setting [2] lay in the range of 100 to 200 nM.

For the compound `C[S@@](=N)(=O)c1cccc(NC(=O)c2cc(C(F)(F)F)nnc2N2CCCC(F)(F)CC2)c1` [Example 18, (R)-3-(4,4-difluoroazepan-1-yl)-N-(3-(S-methylsulfonimidoyl)phenyl)-6-(trifluoromethyl)pyridazine-4-carboxamide], the IC50 is 100 to 200 nM under setting [1] and above 200 nM under setting [2].

Regarding `Cc1c(-c2cnn(C(F)F)c2)cnc(N2CCCC(F)(F)CC2)c1C(=O)Nc1cccc([S@](C)(=N)=O)c1` [Example 159, (R)-2-(4,4-difluoroazepan-1-yl)-5-(1-(difluoromethyl)-1H-pyrazol-4-yl)-4-methyl-N-(3-(S-methylsulfonimidoyl)phenyl)nicotinamide], the IC50 under setting [1] lay within 5 to 50 nM and the IC50 under setting [2] lay within 5 to 50 nM.

Turning to `Cc1nc(N2CCCC(F)(F)CC2)c(C(=O)Nc2cccc(S(C)(=N)=O)c2)cc1Cl` (stereo not drawn) [Example 15, 5-chloro-2-(4,4-difluoroazepan-1-yl)-6-methyl-N-(3-(S-methylsulfonimidoyl)phenyl)nicotinamide], the IC50 runs as follows: under setting [1], at most 5 nM; under setting [2], at most 5 nM.

`Cc1c(-c2ccccc2)cnc(N2CCCC(F)(F)CC2)c1C(=O)Nc1cccc([S@@](C)(=N)=O)c1` [Example 103, (S)-2-(4,4-difluoroazepan-1-yl)-4-methyl-N-(3-(S-methylsulfonimidoyl)phenyl)-5-phenylnicotinamide]: the IC50 is at most 5 nM under setting [1] and at most 5 nM under setting [2].

On to `Cc1c(C#N)cnc(N2CCCC(F)(F)CC2)c1C(=O)NC12CC(C(N)=O)(C1)C2` [Example 136, N-(3-carbamoylbicyclo[1.1.1]pentan-1-yl)-5-cyano-2-(4,4-difluoroazepan-1-yl)-4-methylnicotinamide], for which the IC50 by setting is: under setting [1], at most 5 nM; under setting [2], at most 5 nM.

Regarding `Cc1c(C(F)(F)F)nnc(N2CCCC(F)(F)CC2)c1C(=O)Nc1cccc([S@@](C)(=O)=NC(=O)C(C)(C)N)c1` [Example 235, (R)-N-(3-(N-(2-amino-2-methylpropanoyl)-S-methylsulfonimidoyl)phenyl)-3-(4,4-difluoroazepan-1-yl)-5-methyl-6-(trifluoromethyl)pyridazine-4-carboxamide], the IC50 is at most 5 nM under setting [1] and at most 5 nM under setting [2].

On to `Cc1ccsc1-c1nnc(N2CCCCCC2)c(C(=O)Nc2cccc(S(C)(=N)=O)c2)c1C` (stereo not drawn) [Example 79, 3-(Azepan-1-yl)-5-methyl-N-(3-(S-methylsulfonimidoyl)phenyl)-6-(3-methylthiophen-2-yl)pyridazine-4-carboxamide], for which the IC50 reads like this: under setting [1], above 200 nM; under setting [2], above 200 nM.

With `Cc1c(C#CC2CC2)cnc(N2CCCC(F)(F)CC2)c1C(=O)Nc1cccc([S@](C)(=N)=O)c1` [Example 63, (R)-5-(cyclopropylethynyl)-2-(4,4-difluoroazepan-1-yl)-4-methyl-N-(3-(S-methylsulfonimidoyl)phenyl)nicotinamide], the IC50 is, setting by setting: under setting [1], at most 5 nM; under setting [2], at most 5 nM.

Consider `Cc1noc(C)c1-c1cnc(N2CCCC(F)(F)CC2)c(C(=O)Nc2cccc([S@](C)(=N)=O)c2)c1C` [Example 156, (R)-2-(4,4-difluoroazepan-1-yl)-5-(3,5-dimethylisoxazol-4-yl)-4-methyl-N-(3-(S-methylsulfonimidoyl)phenyl)nicotinamide], for which the IC50 runs as follows: under setting [1], above 200 nM; under setting [2], above 200 nM.

Regarding `Cc1ccnc(N2CCCC(F)(F)CC2)c1C(=O)Nc1cccc(S(C)(=N)=O)c1` (stereo not drawn) [Example 105, 2-(4,4-difluoroazepan-1-yl)-4-methyl-N-(3-(S-methylsulfonimidoyl)phenyl)nicotinamide], the IC50 runs as follows: under setting [1], 50 to 100 nM; under setting [2], 50 to 100 nM.

Consider `Cc1c(-c2cnn(C)c2)cnc(N2CCCC(F)(F)CC2)c1C(=O)Nc1cccc([S@@](C)(=O)=NC(=O)[C@H](C)N)c1` [Example 76, N-(3-((R)-N-(L-alanyl)-S-methylsulfonimidoyl)phenyl)-2-(4,4-difluoroazepan-1-yl)-4-methyl-5-(1-methyl-1H-pyrazol-4-yl)nicotinamide formate], for which the IC50 by setting is: under setting [1], at most 5 nM; under setting [2], at most 5 nM.

As for `Cc1nc(N2CCC3(CC2)CC3)c(C(=O)Nc2cccc([S@@](C)(=N)=O)c2)cc1Cl` [Example 27, (S)-5-Chloro-6-methyl-N-(3-(S-methylsulfonimidoyl)phenyl)-2-(6-azaspiro[2.5]octan-6-yl)nicotinamide], the IC50 was at most 5 nM under setting [1] and at most 5 nM under setting [2].

Take `CNCC(=O)N=[S@](C)(=O)c1cccc(NC(=O)c2c(N3CCCC(F)(F)CC3)ncc(-c3cc(F)cc(F)c3)c2C)c1` [Example 62, (R)-2-(4,4-difluoroazepan-1-yl)-5-(3,5-difluorophenyl)-4-methyl-N-(3-(S-methyl-N-(methylglycyl)sulfonimidoyl)phenyl)nicotinamide]: the IC50 under setting [1] is at most 5 nM and the IC50 under setting [2] is at most 5 nM.

Consider `Cc1c(C(F)(F)F)nnc(N2CCCC(F)(F)CC2)c1C(=O)Nc1cccc([S@@](C)(=O)=NC(=O)CO)c1` [Example 232, (R)-3-(4,4-difluoroazepan-1-yl)-N-(3-(N-(2-hydroxyacetyl)-S-methylsulfonimidoyl)phenyl)-5-methyl-6-(trifluoromethyl)pyridazine-4-carboxamide], for which the IC50 runs as follows: under setting [1], at most 5 nM; under setting [2], at most 5 nM.

Consider `Cc1ccsc1-c1cnc(N2CCCC(F)(F)CC2)c(C(=O)Nc2cccc(S(C)(=N)=O)c2)c1C` (stereo not drawn) [Example 113, 2-(4,4-difluoroazepan-1-yl)-4-methyl-N-(3-(S-methylsulfonimidoyl)phenyl)-5-(3-methylthiophen-2-yl)nicotinamide], for which the IC50 was at most 5 nM under setting [1] and at most 5 nM under setting [2].

Take `CNCC(=O)N=[S@](C)(=O)c1cccc(NC(=O)c2c(N3CCCC(F)(F)CC3)ccc(-c3cnn(C)c3)c2C)c1` [Example 175, (R)-6-(4,4-difluoroazepan-1-yl)-2-methyl-3-(1-methyl-1H-pyrazol-4-yl)-N-(3-(S-methyl-N-(methylglycyl)sulfonimidoyl)phenyl)benzamide]: the IC50 lay in the range of 5 to 50 nM under setting [1] and 5 to 50 nM under setting [2].

For the compound `Cc1c(C#CCO)cnc(N2CCCC(F)(F)CC2)c1C(=O)Nc1cccc([S@](C)(=N)=O)c1` [Example 123, (R)-2-(4,4-difluoroazepan-1-yl)-5-(3-hydroxyprop-1-yn-1-yl)-4-methyl-N-(3-(S-methylsulfonimidoyl)phenyl)nicotinamide], the IC50 reads like this: under setting [1], above 200 nM; under setting [2], above 200 nM.

`Cc1c(-c2cnn(C)c2)cnc(N2CCCC(F)(F)CC2)c1C(=O)Nc1cccc([S@@](C)(=O)=NC(=O)CN)c1` [Example 74, (R)-2-(4,4-difluoroazepan-1-yl)-N-(3-(N-glycyl-S-methylsulfonimidoyl)phenyl)-4-methyl-5-(1-methyl-1H-pyrazol-4-yl)nicotinamide]: the IC50 is, setting by setting: under setting [1], 5 to 50 nM; under setting [2], 5 to 50 nM.

As for `C[S@@](=N)(=O)c1cccc(NC(=O)c2c(N3CCCC(F)(F)CC3)cnc(C(F)(F)F)c2Cl)c1` [Example 208, (R)-3-chloro-5-(4,4-difluoroazepan-1-yl)-N-(3-(S-methylsulfonimidoyl)phenyl)-2-(trifluoromethyl)isonicotinamide], the IC50 lay in the range of 5 to 50 nM under setting [1] and 5 to 50 nM under setting [2].

With `Cc1c(Cl)c(-c2cnn(C)c2)nc(N2CCCC(F)(F)CC2)c1C(=O)Nc1ccnc([S@](C)(=N)=O)c1` [Example 212, (R)-5-chloro-2-(4,4-difluoroazepan-1-yl)-4-methyl-6-(1-methyl-1H-pyrazol-4-yl)-N-(2-(S-methylsulfonimidoyl)pyridin-4-yl)nicotinamide], the IC50 by setting is: under setting [1], 5 to 50 nM; under setting [2], 5 to 50 nM.

Take `CNCC(=O)N=[S@](C)(=O)c1cccc(NC(=O)c2c(N3CCCC(F)(F)CC3)ncc(-c3cnn(C)c3)c2C)c1` [Example 46, (R)-2-(4,4-difluoroazepan-1-yl)-4-methyl-5-(1-methyl-1H-pyrazol-4-yl)-N-(3-(S-methyl-N-(methylglycyl)sulfonimidoyl)phenyl)nicotinamide]: the IC50 is, setting by setting: under setting [1], 5 to 50 nM; under setting [2], 5 to 50 nM.

In the case of `COc1ccc(-c2nnc(N3CCCC(F)(F)CC3)c(C(=O)Nc3cccc([S@](C)(=N)=O)c3)c2C)cc1` (single isomer, unassigned) [Example 138], the IC50 runs as follows: under setting [1], 100 to 200 nM; under setting [2], above 200 nM.

In the case of `Cc1c(C(N)=O)cnc(N2CCCC(F)(F)CC2)c1C(=O)Nc1cccc([S@](C)(=N)=O)c1` [Example 129, (R)-2-(4,4-difluoroazepan-1-yl)-4-methyl-N3-(3-(S-methylsulfonimidoyl)phenyl)pyridine-3,5-dicarboxamide], the IC50 under setting [1] was above 200 nM and the IC50 under setting [2] is above 200 nM.

As for `Cc1nc(N2CCC3(CC2)CC3)c(C(=O)Nc2cccc(S(C)(=N)=O)c2)cc1C(F)(F)F` (stereo not drawn) [Example 25, 6-Methyl-N-(3-(S-methylsulfonimidoyl)phenyl)-2-(6-azaspiro[2.5]octan-6-yl)-5-(trifluoromethyl)nicotinamide], the IC50 is, setting by setting: under setting [1], at most 5 nM; under setting [2], at most 5 nM.

With `Cc1c(C(F)(F)F)nnc(N2CCCC(F)(F)CC2)c1C(=O)Nc1cccc([S@@](C)(=O)=NC(=O)CN2CC(F)(F)C2)c1` [Example 198, (R)-3-(4,4-difluoroazepan-1-yl)-N-(3-(N-(2-(3,3-difluoroazetidin-1-yl)acetyl)-S-methylsulfonimidoyl)phenyl)-5-methyl-6-(trifluoromethyl)pyridazine-4-carboxamide], the IC50 by setting is: under setting [1], at most 5 nM; under setting [2], at most 5 nM.
